Measured values published in the supplement of paper PMC4628005.

Legend:
Conditions in all cases: drug exposure time: 96 h
[1] = compound: O=C(/C=C/c1cccc(S(=O)(=O)Nc2ccccc2)c1)NO [Belinostat]
Experimental: (§1)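 Breast cancer cell lines were grown in RPMI 1640 with 10% FBS on collagen I-coated 96-well plates and treated for 96 h (from 24 h after seeding) with 12 dilutions per drug, in triplicate. Growth was read by sulforhodamine B total-protein staining (absorbance 570 nm) relative to diluent control, and IC50 was calculated. The top dose was 1e-5 M for most drugs; Bortezomib went to 2e-5 M and Sirolimus and 17-AAG to 2e-6 M[…].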

[2] = compound: C#Cc1cccc(Nc2ncnc3cc(OCCOC)c(OCCOC)cc23)c1 [Erlotinib]
Experimental: as §1

[3] = compound: CC/C(=C(\c1ccccc1)c1ccc(OCCN(C)C)cc1)c1ccccc1 [Tamoxifen]
Experimental: as §1

[4] = compound: CC(C)(C)C[C@H]1N[C@@H](C(=O)NCC[C@H](O)CO)[C@H](c2cccc(Cl)c2)[C@@]12C(=O)Nc1cc(Cl)c(F)cc12 [MI-219]
Experimental: as §1

[5] = compound: Nc1ncn([C@@H]2O[C@H](CO)[C@@H](O)[C@H]2O)c(=O)n1 [Azacitidine]
Experimental: as §1

[6] = compound: Cc1nc(Nc2ncc(C(=O)Nc3c(C)cccc3Cl)s2)cc(N2CCN(CCO)CC2)n1 [Dasatinib]
Experimental: as §1

[7] = compound: COc1cc2ncnc(Nc3ccc(F)c(Cl)c3)c2cc1OCCCN1CCOCC1 [Gefitinib]
Experimental: as §1

[8] = compound: COc1ccc(C2=N[C@@H](c3ccc(Cl)cc3)[C@@H](c3ccc(Cl)cc3)N2C(=O)N2CCNC(=O)C2)c(OC(C)C)c1 [Nutlin-3]
Experimental: as §1

[9] = compound: CC(=O)O[C@H]1C(=O)[C@@]2(C)[C@H]([C@H](OC(=O)c3ccccc3)[C@]3(O)C[C@H](OC(=O)[C@H](O)[C@@H](NC(=O)c4ccccc4)c4ccccc4)C(C)=C1C3(C)C)[C@]1(OC(C)=O)CO[C@@H]1C[C@@H]2O [Paclitaxel]
Experimental: as §1

[10] = compound: CS(=O)(=O)CCNCc1ccc(-c2ccc3ncnc(Nc4ccc(OCc5cccc(F)c5)c(Cl)c4)c3c2)o1 [Lapatinib]
Experimental: as §1

[11] = compound: CN(Cc1cnc2nc(N)nc(N)c2n1)c1ccc(C(=O)N[C@@H](CCC(=O)O)C(=O)O)cc1 [Methotrexate]
Experimental: as §1

[12] = compound: CC(=O)O[C@@]12CO[C@@H]1C[C@H](O)[C@@]1(C)C(=O)[C@H](O)C3=C(C)[C@@H](OC(=O)[C@H](O)[C@@H](NC(=O)OC(C)(C)C)c4ccccc4)C[C@@](O)([C@@H](OC(=O)c4ccccc4)[C@H]21)C3(C)C [Docetaxel]
Experimental: as §1

[13] = compound: CCN(CC)CCNC(=O)c1c(C)[nH]c(/C=C2\C(=O)Nc3ccc(F)cc32)c1C [Sunitinib]
Experimental: as §1

[14] = compound: O=C(CCCCCCC(=O)Nc1ccccc1)NO [Vorinostat]
Experimental: as §1

[15] = compound: O=c1[nH]cc(F)c(=O)[nH]1 [5-Fluorouracil]
Experimental: as §1

[16] = compound: CNC(=O)c1cc(Oc2ccc(NC(=O)Nc3ccc(Cl)c(C(F)(F)F)c3)cc2)ccn1 [Sorafenib]
Experimental: as §1

[17] = compound: Nc1ncn([C@H]2C[C@H](O)[C@@H](CO)O2)c(=O)n1 [Decitabine]
Experimental: as §1

[18] = compound: Cn1cc(CNCC2CCN(c3ncc(C(=O)NO)cn3)CC2)c2ccccc21 [Quisinostat]
Experimental: as §1

[19] = compound: c1ccc2c(CCNc3ccc(Nc4ccncc4)cc3)c[nH]c2c1 [Serdemetan]
Experimental: as §1

[20] = compound: O=C1c2c(O)ccc(O)c2C(=O)c2c(NCCNCCO)ccc(NCCNCCO)c21 [Mitoxantrone]
Experimental: as §1

[21] = compound: COc1cc2/c(=N/c3ccc(Br)cc3F)nc[nH]c2cc1OCC1CCN(C)CC1 [Vandetanib]
Experimental: as §1

[22] = compound: Cc1[nH]c2ccccc2c1CCNCc1ccc(/C=C/C(=O)NO)cc1 [Panobinostat]
Experimental: as §1

[23] = compound: Cc1cc2c(F)c(Oc3ncnn4cc(OC[C@@H](C)O)c(C)c34)ccc2[nH]1 [Brivanib]
Experimental: as §1

[24] = compound: CO[C@H]1C[C@@H]2CC[C@@H](C)[C@@](O)(O2)C(=O)C(=O)N2CCCC[C@H]2C(=O)O[C@H]([C@H](C)C[C@@H]2CC[C@@H](O)[C@H](OC)C2)CC(=O)[C@H](C)/C=C(\C)[C@@H](O)[C@@H](OC)C(=O)[C@H](C)C[C@H](C)/C=C/C=C/C=C/1C [Sirolimus]
Experimental: (§2)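 Same SRB 96 h IC50 screen on breast cancer cell lines (RPMI 1640 + 10% FBS, collagen I-coated 96-well plates, triplicates, 12 dilutions), for drugs with a different dose range: Bortezomib up to 2e-5 M; Sirolimus and 17-AAG up to 2e-6 M. Sirolimus values at the 2e-6 M top dose are censored.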

[25] = compound: C=CCNC1=C2C[C@@H](C)C[C@H](OC)[C@H](O)[C@@H](C)/C=C(\C)[C@H](OC(N)=O)[C@@H](OC)/C=C\C=C(/C)C(=O)NC(=CC1=O)C2=O [17-AAG]
Experimental: as §2

[26] = compound: CC(C)C[C@H](NC(=O)[C@H](Cc1ccccc1)NC(=O)c1cnccn1)B(O)O [Bortezomib]
Experimental: as §2

[27] = compound: N.N.[Cl][Pt][Cl] [Cisplatin]
Experimental: as §1

[28] = compound: COc1cccc2c1C(=O)c1c(O)c3c(c(O)c1C2=O)C[C@@](O)(C(=O)CO)C[C@@H]3O[C@H]1C[C@H](N)[C@H](O)[C@H](C)O1 [Doxorubicin]
Experimental: as §1

| Test System | IC50 (SRB growth assay) [1] | IC50 (SRB growth assay) [2] | IC50 (SRB growth assay) [3] | IC50 (SRB growth assay) [4] | IC50 (SRB growth assay) [5] | IC50 (SRB growth assay) [6] | IC50 (SRB growth assay) [7] | IC50 (SRB growth assay) [8] | IC50 (SRB growth assay) [9] | IC50 (SRB growth assay) [10] | IC50 (SRB growth assay) [11] | IC50 (SRB growth assay) [12] | IC50 (SRB growth assay) [13] | IC50 (SRB growth assay) [14] | IC50 (SRB growth assay) [15] | IC50 (SRB growth assay) [16] | IC50 (SRB growth assay) [17] | IC50 (SRB growth assay) [18] | IC50 (SRB growth assay) [19] | IC50 (SRB growth assay) [20] | IC50 (SRB growth assay) [21] | IC50 (SRB growth assay) [22] | IC50 (SRB growth assay) [23] | IC50 (SRB growth assay) [24] | IC50 (SRB growth assay) [25] | IC50 (SRB growth assay) [26] | IC50 (SRB growth assay) [27] | IC50 (SRB growth assay) [28] |
| --- | --- | --- | --- | --- | --- | --- | --- | --- | --- | --- | --- | --- | --- | --- | --- | --- | --- | --- | --- | --- | --- | --- | --- | --- | --- | --- | --- | --- |
| SUM 159 PT | 213 nM | 5260 nM | 6360 nM | > 10000 nM | > 10000 nM | 4060 nM | > 10000 nM | > 10000 nM | 2.95 nM | 46.7 nM | 2.36 nM | 0.71 nM | 1960 nM | 475 nM | 1680 nM | 3730 nM | 46.7 nM | 8.78 nM | 547 nM | 1.24 nM | 5260 nM | 8.19 nM | > 10000 nM | 0.288 nM | 4.73 nM | 3.27 nM | – | – |
| BT 549 | 436 nM | 6100 nM | 7410 nM | > 10000 nM | > 10000 nM | 565 nM | > 10000 nM | > 10000 nM | 1.44 nM | 256 nM | 22.4 nM | 0.598 nM | 3290 nM | 764 nM | 3720 nM | 6040 nM | 256 nM | 12.4 nM | 1260 nM | 1.88 nM | 3410 nM | 11.1 nM | 6300 nM | 0.597 nM | 58.4 nM | 3.97 nM | – | – |
| SUM 185 PE | 352 nM | 9480 nM | 5380 nM | > 10000 nM | > 10000 nM | > 10000 nM | > 10000 nM | > 10000 nM | 4.07 nM | > 10000 nM | > 10000 nM | 2.17 nM | 1040 nM | 891 nM | > 10000 nM | 2530 nM | > 10000 nM | 5.45 nM | 1140 nM | 7.18 nM | 2280 nM | 8.38 nM | 4530 nM | 0.0747 nM | 8.53 nM | 8.04 nM | – | – |
| SUM 1315 MO2 | 703 nM | > 10000 nM | > 10000 nM | > 10000 nM | 3600 nM | 53.7 nM | > 10000 nM | > 10000 nM | 3.29 nM | 6720 nM | 138 nM | 1.54 nM | 4280 nM | 1190 nM | > 10000 nM | 5570 nM | – | 29.6 nM | 1190 nM | 2.7 nM | 2590 nM | 31.7 nM | 7200 nM | 0.917 nM | 55.1 nM | 6.55 nM | > 10000 nM | 17.5 nM |
| SUM 229 PE | 1000 nM | 7630 nM | 4170 nM | > 10000 nM | > 10000 nM | 387 nM | 7560 nM | > 10000 nM | 1.46 nM | 27.2 nM | 25.7 nM | 0.539 nM | 3320 nM | 1820 nM | 2960 nM | 5640 nM | 27.2 nM | 10.6 nM | 292 nM | 6.3 nM | 1870 nM | 25.1 nM | > 10000 nM | 0.201 nM | 19.8 nM | 5.42 nM | – | – |
| SUM 190 PT | 4610 nM | 5250 nM | 8040 nM | > 10000 nM | > 10000 nM | 223 nM | > 10000 nM | > 10000 nM | 1.91 nM | > 10000 nM | > 10000 nM | 0.883 nM | 3870 nM | 4730 nM | > 10000 nM | 2060 nM | > 10000 nM | 72.4 nM | 871 nM | 20.8 nM | 4540 nM | 78 nM | > 10000 nM | 0.548 nM | 79.5 nM | 6.51 nM | – | – |
| MDA-MB-175 VII | 493 nM | > 10000 nM | 7370 nM | 1360 nM | > 10000 nM | 513 nM | > 10000 nM | 3740 nM | 7.47 nM | > 10000 nM | 595 nM | 6.87 nM | > 10000 nM | 898 nM | 4180 nM | 6470 nM | > 10000 nM | 14.8 nM | 4890 nM | 12.6 nM | 2450 nM | 15.2 nM | > 10000 nM | 1.27 nM | 15 nM | 8 nM | – | – |
| BT 474 | 191 nM | 1970 nM | 4130 nM | > 10000 nM | > 10000 nM | 611 nM | 731 nM | > 10000 nM | 2.18 nM | > 10000 nM | > 10000 nM | 0.891 nM | 5780 nM | 376 nM | > 10000 nM | 3500 nM | > 10000 nM | 1.85 nM | 2280 nM | 23.3 nM | 2770 nM | 3.31 nM | > 10000 nM | 0.119 nM | 19.5 nM | 5.49 nM | – | – |
